Measured values taken from patent US20210267207A1, “NOVEL AGROCHEMICAL COMBINATIONS” (priority 2018, published 2021).
Like-named read-outs stand apart in the source and are kept apart here.

Key:
white ears in paddy = assay: Field trial on white ears in paddy, number of white ears per plot; format: in vivo
[1] = format: in vivo; conditions: paddy
stem borer = assay: Field trial of the combination on stem borer in paddy, % mortality; format: in vivo
Procedure: Trials were conducted to test the efficacy of the combination of Chlorantraniliprole+Dinotefuran+Pymetrozine on stem borer in paddy: […]

SMILES: CC1=NNC(=O)N(/N=C/c2cccnc2)C1 [Pymetrozine]
- Number of white ears per plot 7 DAA (white ears in paddy; dose 150 gm. ai/ha): 12
- Number of white ears per plot 14 DAA (white ears in paddy; dose 150 gm. ai/ha): 22
- Number of white ears per plot 21 DAA (white ears in paddy; dose 150 gm. ai/ha): 43
- Yield ([1]; dose 150 gm. ai/ha): 3600
- % mortality 3 DAA (stem borer; dose 150 gm. ai/ha): 75%
- % mortality 7 DAA (stem borer; dose 150 gm. ai/ha): 88%
- % mortality 10 DAA (stem borer; dose 150 gm. ai/ha): 89%
- % mortality 14 DAA (stem borer; dose 150 gm. ai/ha): 79%

SMILES: CNC(=O)c1cc(Cl)cc(C)c1NC(=O)c1cc(Br)nn1-c1ncccc1Cl [Chlorantraniliprole, 3-bromo-4′-chloro-1-(3-chloro-2-pyridyl)-2′-methyl-6′-(methylcarbamoyl)pyrazole-5-carboxanilide]
- Number of white ears per plot 7 DAA (white ears in paddy; dose 30 gm. ai/ha): 5
- Number of white ears per plot 14 DAA (white ears in paddy; dose 30 gm. ai/ha): 7
- Number of white ears per plot 21 DAA (white ears in paddy; dose 30 gm. ai/ha): 14
- Yield ([1]; dose 30 gm. ai/ha): 4322
- % mortality 3 DAA (stem borer; dose 30 gm. ai/ha): 3%
- % mortality 7 DAA (stem borer; dose 30 gm. ai/ha): 7%
- % mortality 10 DAA (stem borer; dose 30 gm. ai/ha): 7.9%
- % mortality 14 DAA (stem borer; dose 30 gm. ai/ha): 6.9%

SMILES: CNC(=N[N+](=O)[O-])NCC1CCOC1 (racemic) [Dinotefuran, (EZ)—(RS)-1-methyl-2-nitro-3-(tetrahydro-3-furylmethyl)guanidine]
- Number of white ears per plot 7 DAA (white ears in paddy; dose 40 gm. ai/ha): 11
- Number of white ears per plot 14 DAA (white ears in paddy; dose 40 gm. ai/ha): 19
- Number of white ears per plot 21 DAA (white ears in paddy; dose 40 gm. ai/ha): 41
- Yield ([1]; dose 40 gm. ai/ha): 3500
- % mortality 3 DAA (stem borer; dose 40 gm. ai/ha): 65%
- % mortality 7 DAA (stem borer; dose 40 gm. ai/ha): 75%
- % mortality 10 DAA (stem borer; dose 40 gm. ai/ha): 75%
- % mortality 14 DAA (stem borer; dose 40 gm. ai/ha): 70%
